According to patent US20230144898A1, “INHIBITOR OF ASPARTIC ACID SYNTHESIS IN TUMOR CELLS, INHIBITOR OF SPHEROID FORMATION OF TUMOR CELLS, INHIBITOR OF TUMOR CELL METASTASIS, ACTIVITY ENHANCER OF GLYCOLYTIC INHIBITOR, AND PHARMACEUTICAL COMPOSITION FOR SUPPRESSING AND/OR PREVENTING TUMOR METASTASIS” (CCI HOLDINGS INC., priority 2020, published 2023):
Several values for one entry are separate records, joined by “and”; a condition that tells them apart may be missing. Identical values can stand only once. Entries after “also recorded” stand apart in the source; their conditions may differ.

Key:
B16F10 cells [1] = assay: Mouse malignant melanoma lung metastasis model (Test Example 2); assay type: in vivo; details: 50 mg/kg intraperitoneally once every two days, 5 times; after 10 days
Experimental: Using the mouse malignant melanoma lung metastasis model, the metastasis inhibitory effect of neopetasin on tumor cells was examined. Specifically, C57BL/6 mice (6 weeks old, female) were purchased from Japan SLC (Hamamatsu). Then, the B16F10 cells were intravenously administered from tail vein in an amount of 0.25×10^6 cells/100 µL PBS. Then, from the day when the cells were seeded, neopetasin (50 mg/kg) was intraperitoneally administered once every two days (5 times in total). After 10 days from the start of administration, the lungs were dissected and extracted, and the number of metastasis lesions observed on the lung surface was counted. In addition, the P value was calculated using Student’s T-test using the GraphPad Prism software system (GraphPad software Inc) .

B16F10 cells [2] = assay: Influence on anticancer action of 2-DG, cell viability (Test Example 3); assay type: cell-based, mouse; details: neopetasin 0.3 µM or 3 µM with 2-DG, 36 hours
Experimental: Specifically, to start with, B16F10 cells were seeded in a six-well plate in an amount of 0.5×10^5 cells/mL. Next, after 24 hours starting from seeding, 2-DG (concentration changed from 3 mM to 3 nM) was added and simultaneously treated with neopetasin at a concentration of 0.3 µM or 3 µM. Then, after 36 hours starting from this treatment, the cell viability was measured through the same method as in Test Example 1. Moreover, as a negative control section, DMSO was administered to perform the same experiment.

[3] = Microscopic observation of organ tissue sections of model mice (Test Example 2); assay type: in vivo; details: heart, normal site of lung, cerebrum, kidney, liver, spleen, 50 mg/kg i.p.
Experimental: Furthermore, when the model mouse to which neopetasin or corn oil was administered was dissected in the above, sections were prepared from the tissues of each organ (heart, normal site of lung, cerebrum, kidney, liver, spleen) and were observed using a microscope. […] The results are consistent with specificity of the action of neopetasin on tumor cells in vitro as described above in Test

A2058 cells = assay: KEGG Pathway analysis using microarray (Test Example 6); assay type: cell-based, human; details: 3 µM, 8 hours
Experimental: The signaling pathways affected by neopetasin treatment were examined by KEGG Pathway analysis using the microarray. Specifically, A2058 cells were seeded at 0.5×10^5 cells/mL in a six-well plate, and after 24 hours of seeding, neopetasin (final concentration: 3 µM) was suspended in a medium and incubated for 8 hours. A2058 cells thus treated with neopetasin (3 µM) for 8 hours were recovered with a cell scraper. Furthermore, DMSO was administered to the negative control section, and the same experiment was performed. Next, data was collected using SurePrint G3 Human CGH microarray 8x60K (Agilent, CA, USA) and the raw data obtained for each sample was normalized with 75 percentile values (global normalization). Then, using Gene Set Enrichment Analysis (GSEA, Broad Laboratory, Massachusetts Institute of Technology, MA, USA), pathways registered in KEGG, Reactome, and GO were searched.
In FIG. 7, the genes with increased expression are shown in red, the gene groups with decreased expression are shown in blue, and the gene groups with changes therebetween are shown in white. […] In addition, when the heat map was drawn, gene groups included in the variable pathways were extracted, and the log-transformed signal data was subjected to cluster analysis by Ward’s method using JMP version 12.2.0 (SAS Institute Inc.).

[4] = system: B16F10 cells (mouse malignant melanoma cells); assay: Proliferation inhibition, B16F10 cells (Test Example 1); assay type: cell-based; details: B16-F10, read-out: IC50, proliferation inhibitory activity on B16F10 cells
[5] = system: ASF4-1 cells (normal human skin-derived fibroblasts); assay: Proliferation inhibition, normal fibroblasts compared with tumor cells (Test Example 1); assay type: cell-based
Experimental: First, CMeCl cells (canine malignant melanoma cells) were seeded in a six-well plate so as to be 0.5×10^5 cells/mL, and after 24 hours therefrom, each of the above four kinds of compounds (final concentration: 0.01 to 100 µg/mL) was suspended in the medium at a ratio of 0.1% and incubated for 72 hours. 72 hours after the start of culture, the number of viable cells was measured by trypan blue staining. At this time, viable cells (cell viability%) were calculated as the relative number of cells when the number of viable cells in a negative control section (DMSO treatment) was taken as 100%. Then, IC50 was calculated using a GraphPad Prism software system (GraphPad Software Inc.).
Furthermore, the results of the same test as described above using ASF4-1 cells, which are normal human skin-derived fibroblasts, and A2058 cells, which are human malignant melanoma cells, are shown in FIG. 1C in comparison with the case of using B16F10 cells.

B16F10 cells [6] = assay: Western blotting, temporal changes of AMPK, FAK, Akt, ERK1/2 (Test Example 11); assay type: cell-based, mouse; details: 3 µM; 3, 8, 24 and 56 hours
Experimental: Specifically, for B16F10 cells treated with neopetasin (3 µM) or metformin (5000 µM) through the same method as in Test Example 1, the cells were recovered at each of 3 hours, 8 hours, 24 hours, and 56 hours after the treatment with these compounds, and the contents of various proteins were measured by Western blotting through the same method as in Test Example 10. Furthermore, DMSO was administered to the negative control section, and the same experiment was performed.

[7] = system: mitochondrial respiratory chain Complex I; assay: MitoCheck Complex Activity Assay (Test Example 9); assay type: biochemical; details: II, II/III, IV and V tested
Experimental: Specifically, using the MitoCheck Complex Activity Assay Kit (Cayman Chemical Company, Ann Arbor, MI, USA), extent of relative activity of each of Complex I, Complex II, Complex II/III, Complex IV and Complex V constituting the mitochondrial respiratory chain that was reduced by neopetasin treatment was examined. Furthermore, as a negative control section, DMSO was administered to perform the same experiment. In addition, as a positive control section, rotenone (Complex I), TTFA (Complex II), antimycin A (Complexes II/III), KCN (Complex IV), and oligomycin (Complex V) were each administered, and the same experiment was conducted.

B16F10 cells [8] = assay: Scratch wound healing assay (Test Example 5); assay type: cell-based, mouse; details: 0.3 µM, 72 hours
Experimental: Specifically, to start with, B16F10 cells were seeded in a six-well plate in an amount of 1.0×10^5 cells/mL. After 24 hours starting from seeding, scratches were then made using 200 µL chips. Thereafter, the medium was changed to a neopetasin-containing one (concentration: 0.3 µM), the cells were further cultured for 72 hours, and the cells were photographed. In addition, as a negative control section, the same experiment was performed by replacing the medium with the same medium not containing neopetasin.

SMILES: C=C(C)[C@H]1C[C@@]2(C)C(=CC1=O)CC[C@@H](OC(=O)/C(C)=C\C)[C@@H]2C [Neopetasin, neopetasin]
- lung metastasis (number of metastasis lesions on the lung surface) (B16F10 cells [1]): extremely potently suppressed lung metastasis; also recorded: inhibited lung metastasis
- anticancer action of 2-DG on addition of neopetasin (B16F10 cells [2]): enhanced in a concentration-dependent manner
- histological and morphological changes / toxicity in organs [3]: no histological and morphological changes; also recorded: showed little toxicity to the liver, kidney, spleen
- changes in asparagine synthetase (ASNS) and cystathionine gamma-lyase (CTH) (A2058 cells): particularly significant changes
- expression of molecules involved in amino acid metabolism (A2058 cells): greatly varies
- IC50 [4]: 493 nM and 0.156 µg/mL
- inhibitory effect on proliferation of / cytotoxicity to normal cells ([5]; ASF4-1 cells): hardly exhibits the inhibitory effect on proliferation of normal cells; also recorded: shows no cytotoxicity
- IC50 for ASF4-1 cells (normal cells) relative to IC50 for tumor cells ([5]; versus A2058 cells and B16F10 cells): ≥ 1000 fold
- AMPK change (B16F10 cells [6]): changes at the earliest stage (3 hours)
- Akt and ERK (B16F10 cells [6]): inactivated
- FAK (B16F10 cells [6]): inactivated
- relative activity of mitochondrial respiratory chain complexes [7]: selectively reduced only the relative activity of the mitochondrial respiratory chain Complex I
- migration of tumor cells to the scratch portion (B16F10 cells [8]): suppressed
